Here are results for 3 compounds from US9018251B2, “Method for treating brain cancer or reducing temozolomide-resistance of brain cancer cells” (China Medical University, priority 2011, dated 2015).

Structures are written as SMILES. Where two headings read alike, the source gives them in different places. Bounds are passed on as bounds.

Assay [1] relates to brain cancer cell line DBTRG. Briefly: MTT cell viability assay, DBTRG. It is filed as cell-based. The conditions noted are these: for IC50: 48 h, read-out: IC50 value; for viability at 500 µM: Concentration 500 μM. As to the method:
(§1) The MTT (3-[4,5-dimethylthiahiazo-2-yl]-2,4-dipheny-tetrazolium bromide) cell viability assay was used to study the mortality effect of temozolomide to various brain cancer cell lines. (See Pauwels et al., J. Virol. Methods, 1988, 20, 309-321 for the MTT cell viability assay, which is incorporated hereinto by reference).
The cell viability rate and mortality rate were calculated based on the absorbance.

For assay [2], the system named is brain cancer cell line 8401. The experiment in a line: MTT cell viability assay, 8401. It is filed as cell-based.
From the text: as §1
Background: Tetrazolium dyes change colour on reduction, which living cells bring about.

The subject of assay [3] is brain cancer cell line 8901. The experiment in a line: MTT cell viability assay, 8901 (with CalcuSyn combination index). It is filed as cell-based. As to conditions: for IC50: 48 h, single agent, cultured 2 days, MTT.
From the text: as §1

Assay [4] has as its system brain cancer cell line G5T/VGH. The experiment in a line: MTT cell viability assay, G5T/VGH. It is filed as cell-based.
From the text: as §1

For assay [5], the system named is MGMT. Briefly: MGMT RNA expression (RT-PCR, gel electrophoresis) in 8901. It is filed as cell-based. The conditions noted are these: as concentration increased, treated 3 to 48 hours, FIG. 3. Here is the method: (§2) Brain cancer cell lines 8901 and GBM22-TMZ with temozolomide-resistance were cultured in a petri dish with a diameter of 10 cm, respectively. A PBS solution was used to rinse the cells after the cell proliferation reached to 60% by volume of the dish. (Z)-butylidenephthalide or (E)-butylidenephthalide was added to treat the cells for 3 to 48 hours, and then the cells were collected. The total RNA of the cells was extracted and reverse transcribed into cDNA (using 50 micro-mole of […] and 50 pico-mole of random hexamers primer). One unit of ExTaq DNA polymerase, 200 nM dNTP (1 μL), and 2.5 mM of MgCl2 (1 μL) were added, and then 20 mM of MGMT nucleotide primers (1 μL each) and 50 μL of water were added.
The sample was placed into a polymerase chain reaction (PCR) system (GeneAmp PCR System 2400, Perkin Elmer, USA). The condition was set as: denaturing, 94° C., 30 s; annealing, 55° C., 30 s; extension, […]; 30 cycles; and finally 72° C., 10 minutes. Afterwards, the system temperature was decreased to 4° C. to terminate the reaction. The product from the PCR was analysed by a 1.5% gel electrophoresis. The gel was analysed by Fluoro-Chem imaging system (Alpha InnoTech Cooperation) to determine the expression level of MGMT gene.

Assay [6] deals with MGMT. Briefly: MGMT protein expression (SDS-PAGE, western blotting) in 8901. It is filed as cell-based. As to conditions: as concentration increased, treated 3 to 48 hours, FIG. 4. As to the method: as §2
(§3) In another aspect, the intracellular proteins of the aforesaid brain cancer cell lines 8901 and GBM22-TMZ were collected. SDS-PAGE and western blotting were used to analyze the expression of the MGMT protein in the brain cancer cell lines.

Assay [7] concerns MGMT. Briefly: MGMT protein expression (SDS-PAGE, western blotting) in GBM22-TMZ. It is filed as cell-based, human. The conditions noted are these: as concentration increased, FIG. 5. Here is the method: as §2, §3
Assay [8] has as its system brain cancer cell line GBM22-TMZ. Briefly: In vivo subcutaneous tumor transplant test. The conditions noted are these: 28th day. Set-up: species or system Balb/c nude mice. Here is the method:
An in vivo test was carried out by a subcutaneous tumor transplant mode to observe the anti-tumor activity of (Z)-butylidenephthalide, temozolomide, or their combination in vivo.
First, 2×10^6 cells of brain cancer cell line GBM22-TMZ with temozolomide-resistance were cultured sterilely and subcutaneously injected to Balb/c nude mice (purchased from the National Laboratory Animal Center, Taiwan) to carry out the in vivo tumor transplant experiment. When the tumor was grown to 100 mm^3 (length×width×width/2), the subcutaneous administration was carried out for treatment. On the contralateral side of the tumor tissue, at a position more than 1.5 cm, (Z)-butylidenephthalide was injected, or temozolomide was orally administrated, once per day consecutively for 5 days. In the treatment group in which (Z)-butylidenephthalide and temozolomide were administrated in combination, (Z)-butylidenephthalide was first subcutaneously administrated (SC), and 2 hours later, temozolomide was orally administrated (PO). After administration on the 5th day, the tumor size and the body weight of the mice were observed continuously for 28 days, and were measured every 3 days. The measurement value of the tumor size on the 28th day was used as the assessment result of the inhibiting activity on tumor growth. The smaller the value, the better the inhibition effect. […] There was a significant difference when P value was less than […]. The results are shown in Table 7, and FIGS. 11A and 11B.

Assay [9] has the same test system. The experiment in a line: In vivo survival analysis, glioblastoma orthotopic xenografts. Set-up: species or system Mice. As to the method:
A survival analysis was carried out to investigate the antiglioma effect of the combination of (Z)-butylidenephthalide and temozolomide in vivo. Mice with established glioblastoma orthotopic xenografts from brain cancer cell line GBM22-TMZ were randomized to carry out the therapy with indicated temozolomide (66 mg/kg/day; 5 days), (Z)-butylidenephthalide (50 or 100 mg/kg/day; 5 days), or combinations thereof. Observation was recorded until the mice reached a moribund state, and survival results are shown as Kaplan-Meier survival curves.

For assay [10] the test system is unchanged. Briefly: MTT cell viability assay, GBM22-TMZ (with CalcuSyn combination index). As to conditions: Homo sapiens, 48 h.
Method: In a 96-microwell plate, each well was cultured with 3×10^3 cells of brain cancer cell line 8901 which have temozolomide-resistance. The next day, different concentrations of temozolomide (0 to 1200 μM, 200 μL) or the combination of temozolomide and (Z)-butylidenephthalide (0 to 200 μM, 200 μL) were dropped into the well along the interior wall of the plate. Four microwell plates were used for each analysis, and four wells were used for each combination of various drug concentrations. A solvent was placed into the first row as the control group. After the cells were cultured for 2 days, the culture solution was drawn and discarded, and a culture solution containing 500 μg/mL of MTT (200 μL) was added to culture for another 4 hours. The culture solution was drawn and discarded, and 200 μL of DMSO was added, and then the microwell plate spectrometer was used to measure the absorbance of the cells at a wavelength of 570 nm. The cell viability rate and mortality rate and the concentrations of temozolomide that reached the mortality rate of 50% of various brain cancer cell lines (IC50) were calculated based on the absorbance.
In a 96-microwell plate, each well was cultured with 3×10^3 cells of brain cancer cell line 8901 or GBM22-TMZ with temozolomide-resistance. […] The microwell plate spectrometer was then used to measure the absorbance of the cells at a wavelength of 570 nm. […]
The mark [11] stands for this setting: read-out: Viability rate of DBTRG(%).
The mark [12] stands for this setting: 48 h, single agent, cultured 2 days, MTT.

Turning to `CCC/C=C1\OC(=O)c2ccccc21` [(Z)-butylidenephthalide], the IC50 (as a rule, the concentration at which inhibition is half-maximal) in assay [1] is around 250 µM; in [3], 219 µM; in assay [10], 451 µM. In addition, the viability (in general, a per cent measure of how many cells are alive, often set against a control) at 125 µM in assay [1] (Concentration 125 μM, read-out: Viability rate of DBTRG(%)) amounted to 80%. For the same compound, the viability at 250 µM in [1] (Concentration 250 μM, read-out: Viability rate of DBTRG(%)) was found to be 58%. Also, in [1] (setting [11]), the viability at 500 µM turned out to be 30%. The “growth inhibition of brain cancer cell line” value in assay [1] (DBTRG, 0 to 400 μM, FIG. 10) is listed as “effectively inhibit the growth”; in assay [2] (0 to 400 μM, FIG. 10), “effectively inhibit the growth”; in assay [3] (0 to 400 μM, FIG. 10), “effectively inhibit the growth”; in assay [4] (0 to 400 μM, FIG. 10), “effectively inhibit the growth”. In the assay with MGMT [5], the “expression of RNA of MGMT” value is on record as “reduced”. Also, the “expression of proteins of MGMT” value in the assay with MGMT [6] and in the assay with MGMT [7] was “reduced” each time. The “Relative tumor size (fold)” value was determined as 2.7 fold in assay [8] (SC consecutively for 5 days, 50 mg/kg/day) and 2.6 fold in assay [8] (SC consecutively for 5 days, 100 mg/kg/day). Also, the Survival rate was 100% in assay [9] ((Z)-butylidenephthalide (50 mg/kg), Day 0); 100% in assay [9] ((Z)-butylidenephthalide (50 mg/kg), Day 5); 100% in assay [9] ((Z)-butylidenephthalide (50 mg/kg), Day 8); 100% in assay [9] ((Z)-butylidenephthalide (50 mg/kg), Day 11); 100% in assay [9] ((Z)-butylidenephthalide (50 mg/kg), Day 14); 100% in assay [9] ((Z)-butylidenephthalide (50 mg/kg), Day 18). The Survival rate in assay [9] ((Z)-butylidenephthalide (50 mg/kg), Day 21) is on record as 66%; in [9] ((Z)-butylidenephthalide (50 mg/kg), Day 28) it was 0%; in assay [9] ((Z)-butylidenephthalide (50 mg/kg), Day 30), 0%; in assay [9] ((Z)-butylidenephthalide (100 mg/kg), Day 0) it was 100%; in assay [9] ((Z)-butylidenephthalide (100 mg/kg), Day 5), 100%; in [9] ((Z)-butylidenephthalide (100 mg/kg), Day 8), 100%. The Survival rate was determined as 100% in assay [9] ((Z)-butylidenephthalide (100 mg/kg), Day 11); 100% in assay [9] ((Z)-butylidenephthalide (100 mg/kg), Day 14); 100% in [9] ((Z)-butylidenephthalide (100 mg/kg), Day 18); 66% in assay [9] ((Z)-butylidenephthalide (100 mg/kg), Day 21); 0% in assay [9] ((Z)-butylidenephthalide (100 mg/kg), Day 28); 0% in assay [9] ((Z)-butylidenephthalide (100 mg/kg), Day 30).

Take `Cn1nnc2c(C(N)=O)ncn2c1=O` [temozolomide]: the IC50 is 1660 µM in [1] (DBTRG, single agent, cultured 2 days, MTT); 831 µM in [2] (setting [12]); 1200 µM in assay [3]; 1660 µM in assay [4] (setting [12]); above 3200 µM in assay [10]. Further, the “Relative tumor size (fold)” value in [8] (PO consecutively for 5 days, 66 mg/kg/day) is on record as 4.3 fold. In addition, the Survival rate in assay [9] (temozolomide (66 mg/kg), Day 0) amounted to 100%; in assay [9] (temozolomide (66 mg/kg), Day 5), 100%; in assay [9] (temozolomide (66 mg/kg), Day 8), 100%; in [9] (temozolomide (66 mg/kg), Day 11), 66%; in [9] (temozolomide (66 mg/kg), Day 14), 66%; in assay [9] (temozolomide (66 mg/kg), Day 18), 66%. Besides, the Survival rate is listed as 33% in [9] (temozolomide (66 mg/kg), Day 21); 0% in [9] (temozolomide (66 mg/kg), Day 28); 0% in assay [9] (temozolomide (66 mg/kg), Day 30).

In the case of `CCC/C=C1/OC(=O)c2ccccc21` [(E)-butylidenephthalide, reference compound], in assay [1] (setting [11]), the viability at 500 µM was found to be 88%. The viability at 1500 µM in assay [1] (Concentration 1500 μM, read-out: Viability rate of DBTRG(%)) came to 81%. Moreover, the viability at 2500 µM in [1] (Concentration 2500 μM, read-out: Viability rate of DBTRG(%)) was 70%. Also, the “killing of brain cancer cells” value in assay [1] (DBTRG, high dosage of 2500 μM) was “cannot kill brain cancer cells effectively”. Also, the “expression of RNA of MGMT” value with MGMT [5] was “no significant changes”. Besides, in the assay on MGMT [6], the “expression of proteins of MGMT” value was “no significant changes”.
